pIC50: −log10 of the molar value.
Columns and labels:
[1] = system: E. coli strain Gif106M1 transformed with pBT436; type: cell-based; settings: M9 media with arginine, isoleucine, ampicillin
Text: To establish that the cloned lysC gene was functional, pBT436 was transformed into E. coli strain Gif106M1 (E. coli Genetic Stock Center strain CGSC-5074) which has mutations in each of the three E. coli AK genes [Theze et al., J. Bacteriol., (1974), 117, 133-143|. This strain lacks all AK activity and therefore requires diaminopimelate (a precursor to lysine which is also essential for cell wall biosynthesis), threonine and methionine.
M9 media [see Sambrook et al. (1989) Molecular Cloning: A Laboratory Manual, Cold Spring Harbor Laboratory Press| supplemented with the arginine and isoleucine, required for Gif106M1 growth, and ampicillin, to maintain selection for the pBT436 plasmid, was used. […] This property of pBT436-transforned Gif106M1 was used to select for mutations in lysC that encoded lysine-insensitive AKIII.

[2] = molecular target: T1, AKII-HDHII (HDH activity) (Escherichia coli, UniProt P00562); test: HDH activity of AKII-HDHII extract (clone 5), inhibition by pathway end-products; type: biochemical, E. coli; settings: 30 mM end-product; extract from clone 5
T1 construct: The primers also add a Kpn I site immediately following the translation stop codon; made in house; host or cells: E. coli BL21(DE3), pBT430-derived T7 vector; supernatant of sonicated cells (clone 5, plasmid pBT718)
Protocol: The cells were collected by centririgation and resuspended in 1/25th the original culture volume in 50 mM NaCl; 50 mM Tris-Cl, pH 7.5; 1 mM EDTA, and frozen at −20° C., thawed at 37° C. and sonicated, in an ice-water bath, to lyse the cells. The lysate was centrifuged at 4° C. for 5 min at 12,000 rpm. The supernatant was removed and the pellet was resuspended in the above buffer. The supernatant fractions were assayed for HDH enzyme activities to identify clones expressing functional proteins. HDH activity was assayed as shown below: HDH ASSAY
Make Mixture of above reagents with amounts multiplied by number of assays. Use 0.9 mL of mix for 1 mL assay; 180 μL of mix for 0.2 mL assay in microtiter dish
to ½ the assay mix; remaining ½ lacks ASA to serve as blank
Add enzyme extract last to start reaction. Incubate at ˜30° C.; monitor NADPH oxidation at 340 nM. 1 unit oxidizes 1 μmol NADPH/min at 30° C. in the 1 mL reaction.

[3] = molecular target: T2, wild type AKIII (Escherichia coli, UniProt P08660, G401A); test: Lysine inhibition of wild type AKIII aspartokinase activity; type: biochemical, E. coli; settings: read-out: inhibition of AKIII
T2 construct: made in house; host or cells: E. coli Gif106M1 (lacks all AK activity) transformed with pBT436
Protocol: (§1) Single colonies of Gif106M1 transformed with pBT436 were picked and resuspended in 200 μL of a mixture of 100 μL 1% lysine plus 100 μL of M9 media. The entire cell suspension containing 10^7-10^8 cells was spread on a petri dish containing M9 media supplemented with the arginine, isoleucine, and ampicillin. Sixteen petri dishes were thus prepared. From 1 to 20 colonies appeared on 11 of the 16 petri dishes. One or two (if available) colonies were picked and retested for lysine resistance and from this nine lysine-resistant clones were obtained. Plasmid DNA was prepared from eight of these and re-transformed into Gif106M1 to determine whether the lysine resistance determinant was plasmid-borne. Six of the eight plasmid DNAs yielded lysine-resistant colonies. Three of these six carried lysC genes encoding AKIII that was uninhibited by 15 mM lysine, whereas wild type AKIII is 50% inhibited by 0.3-0.4 mM lysine and >90% inhibited by 1 mM lysine.
(§2) Assay mix (for 12×1.0 mL or 48×0.25 mL assays): • 2.5 mL H2O • 2.0 mL 4M KOH • 2.0 mL 4M NH2OH—HCl • 1.0 mL 1M Tris-HCl pH 8.0 • 0.5 mL 0.2M ATP (121 mg/ml in 0.2M NaOH) • 50 μL 1M MgSO4
(§3) Each 1.5 mL eppendorf assay tube contains:
(§4) Assay tubes are incubated at 30° C. for 30-60 min […];
(§5) Spin for 2 min in eppendorf centrifuge tube. Read OD at […].

[4] = molecular target: T3, wild type AKIII (Escherichia coli, UniProt P08660); test: as above; type: biochemical, E. coli
T3 construct: made in house; host or cells: E. coli Gif106M1 (lacks all AK activity) transformed with pBT436
Protocol: as §1, §2, §3, §4, §5

[5] = molecular target: T4, AKIII encoded by mutant lysC genes (lysine-insensitive) (Escherichia coli, UniProt P08660, G401A/T352I); type: biochemical, E. coli; settings: 15 mM lysine; three mutant lysC genes (M2, M3, M4)
T4 construct: made in house; host or cells: E. coli Gif106M1 carrying mutated pBT436 plasmids
Protocol: as §1
The sequences of the three mutant lysC genes that encoded lysine-insensitive AK each differed from the wild type sequence by a single nucleotide, resulting in a single amino acid substitution in the protein. […] Thus, either of these single amino acid substitutions is sufficient to render the AKIII enzyme insensitive to lysine inhibition. […]
as §5

[6] = molecular target: T5, AKII-HDHII (AK activity) (Escherichia coli, UniProt P00562); test: AK activity of AKII-HDHII extract (clone 5), inhibition by pathway end-products; type: biochemical, E. coli; settings: 30 mM end-product; extract from clone 5
T5 construct: The primers also add a Kpn I site immediately following the translation stop codon; made in house; host or cells: E. coli BL21(DE3), pBT430-derived T7 vector; supernatant of sonicated cells (clone 5, plasmid pBT718)
Protocol: These four were then assayed for AK activity. AK activity was assayed as shown below:
as §2
pH of assay mix should be 7-8
as §3, §4, §5
Two extracts also had high levels of AK enzyme activity. These two extracts were then tested for inhibition of AK or HDH activity by the pathway end-products, lys, thr and met.

T5 sequence (P00562 other isoform, or with tags, fused parts or gaps): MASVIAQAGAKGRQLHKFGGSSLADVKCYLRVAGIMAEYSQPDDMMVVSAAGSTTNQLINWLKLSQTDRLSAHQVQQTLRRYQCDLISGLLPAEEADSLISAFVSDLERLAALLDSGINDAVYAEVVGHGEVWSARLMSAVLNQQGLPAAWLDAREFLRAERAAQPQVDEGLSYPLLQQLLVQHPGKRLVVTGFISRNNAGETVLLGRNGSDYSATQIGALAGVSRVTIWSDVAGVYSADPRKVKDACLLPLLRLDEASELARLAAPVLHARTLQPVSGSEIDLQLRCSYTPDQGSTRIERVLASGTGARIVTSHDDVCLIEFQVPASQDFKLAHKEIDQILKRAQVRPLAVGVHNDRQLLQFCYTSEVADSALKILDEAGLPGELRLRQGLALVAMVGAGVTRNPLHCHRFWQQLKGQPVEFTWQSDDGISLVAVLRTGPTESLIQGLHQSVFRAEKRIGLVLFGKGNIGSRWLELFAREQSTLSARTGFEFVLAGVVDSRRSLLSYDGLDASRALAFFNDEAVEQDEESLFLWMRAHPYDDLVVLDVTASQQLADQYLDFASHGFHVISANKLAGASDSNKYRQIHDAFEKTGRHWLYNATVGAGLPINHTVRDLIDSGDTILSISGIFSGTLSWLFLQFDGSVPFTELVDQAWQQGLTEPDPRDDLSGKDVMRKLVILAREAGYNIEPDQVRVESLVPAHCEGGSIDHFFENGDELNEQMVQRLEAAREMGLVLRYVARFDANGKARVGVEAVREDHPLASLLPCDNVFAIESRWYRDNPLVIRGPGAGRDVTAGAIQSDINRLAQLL
T1 sequence (P00562 other isoform, or with tags, fused parts or gaps): as above
T4 sequence (P08660 2-449 T352I/G401A): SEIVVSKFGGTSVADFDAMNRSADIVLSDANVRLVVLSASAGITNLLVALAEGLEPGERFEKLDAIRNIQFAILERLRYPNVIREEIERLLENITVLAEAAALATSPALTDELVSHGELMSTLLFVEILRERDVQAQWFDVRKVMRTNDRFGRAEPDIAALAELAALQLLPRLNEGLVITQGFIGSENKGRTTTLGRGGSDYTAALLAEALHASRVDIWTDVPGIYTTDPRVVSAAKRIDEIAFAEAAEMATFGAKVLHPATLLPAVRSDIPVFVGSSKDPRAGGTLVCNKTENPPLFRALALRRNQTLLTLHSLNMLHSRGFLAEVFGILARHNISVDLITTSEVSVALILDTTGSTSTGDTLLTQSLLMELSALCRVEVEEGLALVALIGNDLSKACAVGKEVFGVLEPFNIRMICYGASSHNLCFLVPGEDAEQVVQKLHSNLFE
T3 sequence (P08660 2-449 G401A): as the sequence (P08660 2-449 T352I/G401A) above, with I351T counted along it
T2 sequence (P08660 2-449 G401A): as the sequence (P08660 2-449 T352I/G401A) above, with I351T counted along it

Compound	concentration in growth medium that inhibits growth [1]	inhibition of HDH activity [2]	inhibition at 1000 µM [3]	pIC50 [4]	inhibition of mutant AKIII [5]	inhibition of AK activity [6]
NC(CCCC(N)C(=O)O)C(=O)O (centres unmarked) [diaminopimelate]	approximately 0.2 mM	–	–	–	–	–
NCCCC[C@H](N)C(=O)O [lysine]	approximately 0.2 mM	Neither the AK nor the HDH activity of the extract from clone 5 was inhibited	> 90%	3.40 to 3.52	uninhibited	Neither the AK nor the HDH activity of the extract from clone 5 was inhibited
CSCC[C@H](N)C(=O)O [methionine]	–	Neither the AK nor the HDH activity of the extract from clone 5 was inhibited	–	–	–	Neither the AK nor the HDH activity of the extract from clone 5 was inhibited
C[C@@H](O)[C@H](N)C(=O)O [threonine]	–	Neither the AK nor the HDH activity of the extract from clone 5 was inhibited	–	–	–	Neither the AK nor the HDH activity of the extract from clone 5 was inhibited

From patent US7026527B2, “Plant methionine synthase gene and methods for increasing the methionine content of the seeds of plants” (priority 1995, dated 2006)
